Test results published in publication PMC5500849, “Cobamide-mediated enzymatic reductive dehalogenation via long-range electron transfer” (Nature Communications, 2017).

Tests used:
PceA (PceA–Strep) [1] = target: T1, PceA (PceA–Strep) (Sulfurospirillum multivorans, UniProt O68252); assay: crystal structure, soaked crystal; assay type: binding; settings: [Co(II)] state
T1 construct: C-terminal Strep-tag II, homologously produced in S. multivorans GD21 (genomic pceAB), Strep-Tactin purified; crystals from mature enzyme (Tat signal peptide removed); holo with norpseudo-B12 and two [4Fe-4S] clusters
T1 sequence (O68252 38-501): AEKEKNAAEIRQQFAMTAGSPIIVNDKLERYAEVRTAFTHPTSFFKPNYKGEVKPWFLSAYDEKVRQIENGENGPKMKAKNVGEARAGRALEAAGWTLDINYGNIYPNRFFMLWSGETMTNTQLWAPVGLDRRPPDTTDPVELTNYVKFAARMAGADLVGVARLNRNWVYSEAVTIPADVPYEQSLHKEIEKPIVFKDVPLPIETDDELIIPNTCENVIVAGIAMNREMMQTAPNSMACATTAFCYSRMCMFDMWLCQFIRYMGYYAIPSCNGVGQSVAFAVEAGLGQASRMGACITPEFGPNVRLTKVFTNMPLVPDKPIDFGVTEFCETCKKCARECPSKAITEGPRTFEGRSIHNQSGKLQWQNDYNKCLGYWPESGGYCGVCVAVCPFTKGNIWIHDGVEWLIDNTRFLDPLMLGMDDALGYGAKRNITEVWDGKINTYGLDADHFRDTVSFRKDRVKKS

PceA (PceA–Strep) [2] = target: T1, PceA (PceA–Strep); assay: inhibition of 4-BP dehalogenation; assay type: biochemical; settings: 47 nM enzyme, dark 2 min; covalent, alkylates cobamide [Co(I)], reversed by light

In the case of `Oc1cccc(Br)c1` [3-BP], the “crystal structure, soaked crystal” value (PceA (PceA–Strep) [1]; enzyme with methoxybenzimidazolyl-norcobamide instead of norpseudo-B12) is reported as 5MAA (3-BP).

`Oc1cccc(Cl)c1` [3-CP] was tested, and the “crystal structure, soaked crystal” value (PceA (PceA–Strep) [1]; active site, not dehalogenated) was 5M8Y (3-CP).

With `Oc1ccc(Cl)cc1` [4-CP] the “crystal structure, soaked crystal” value (PceA (PceA–Strep) [1]; active site, not dehalogenated) was 5M8W (4-CP).

`Oc1ccc(I)cc1` [4-IP] was tested, and the “crystal structure, soaked crystal” value (PceA (PceA–Strep) [1]; active site, also surface groove site) was 5MA2 (4-IP).

In the case of `CCCI` [propyl iodide], the “complete inhibition at 100 μM” value (PceA (PceA–Strep) [2]) is reported as “complete inhibition of the PceA-mediated 4-BP dehalogenation by propyl iodide in the dark”.
